Among the data in ChEMBL document CHEMBL4602636, “Synthesis and in vitro antitumor evaluation of honokiol derivatives” (Bioorg Med Chem Lett, 2020) are IC50, inhibition and Activity values, retold here.

By IC50 is commonly meant the point on the concentration scale where inhibition reaches its midpoint.

Active and inactive are the calls of the source. The rule behind the calls is not given here.

The subject of one test is MCF7. The test is described as follows: Antiproliferative activity against human MCF7 cells assessed as growth inhibition after 72 hrs by MTT assay. The class given is functional, cell-based. The settings on record: MCF7, 72 h.
The test system of another test is CNE2Z. The test is described as follows: Antiproliferative activity against human CNE2Z cells assessed as growth inhibition after 72 hrs by MTT assay. The class given is functional, cell-based. On the technique in general: Tetrazolium dyes change colour on reduction, which living cells bring about.
Test [1] relates to I10. The test is described as follows: Antiproliferative activity against mouse I10 cells assessed as growth inhibition after 72 hrs by MTT assay. The class given is functional, cell-based. The following applies: I10, 72 h.
Test [2] has as its system I10. The test is described as follows: Inhibition of cell migration in mouse I10 cells at 10 uM after 24 hrs under hypoxia condition by scratch wound healing assay. The class given is functional, cell-based.
Test [3] relates to I10. The test is described as follows: Downregulation of MMP-9 expression in mouse I10 cells at 20 uM after 24 hrs Western blot analysis. The class given is functional, cell-based. In general terms: In western blotting, separated proteins are transferred to a membrane and probed.
The subject of test [4] is I10. The test is described as follows: Antiinvasive activity against mouse I10 cells assessed as reduction in number of invaded cells at 2.5 uM after 36 hrs under hypoxia condition by crystal violet staining based transwell assay. The class given is functional, cell-based.
Test [5] concerns I10. The test is described as follows: Downregulation of HIF1alpha expression in mouse I10 cells at 20 uM after 24 hrs Western blot analysis. The class given is functional, cell-based.
Test [6] has as its system I10. The test is described as follows: Antiinvasive activity against mouse I10 cells incubated for 36 hrs under hypoxia condition by crystal violet staining based transwell assay. The class given is functional, cell-based.
In test [7] the test system is I10. The test is described as follows: Antiproliferative activity against mouse I10 cells after 24 to 72 hrs by MTT assay. The class given is functional, cell-based.
The subject of test [8] is I10. The test is described as follows: Antiproliferative activity against mouse I10 cells at 2.5 to 20 uM by MTT assay. The class given is functional, cell-based. The following applies: TDE = time-dependent effect.
The test system of test [9] is I10. The test is described as follows: Downregulation of MMP-2 expression in mouse I10 cells at 20 uM after 24 hrs Western blot analysis. The class given is functional, cell-based.
Test [10] relates to I10. The test is described as follows: Antiproliferative activity against mouse I10 cells at 20 uM after 24 to 72 hrs by MTT assay relative to control. The class given is functional.
Test [11] has as its system I10. The test is described as follows: Inhibition of cell migration in mouse I10 cells after 24 hrs under hypoxia condition by scratch wound healing assay. The class given is functional, cell-based.

Turning to `C=CCc1ccc(OCc2ccccc2)c(-c2ccc(OCc3ccccc3)c(CC=C)c2)c1`, the half-inhibitory concentration (IC50) in the test on MCF7, in the test on CNE2Z and with I10 [1] was more than 50 µM in each case.

For the compound `C=CCc1ccc(OCC)c(-c2ccc(O)c(CC=C)c2)c1`, the results for the half-maximal inhibitory concentration (IC50) in the test with MCF7, in the test with CNE2Z and in the test on I10 [1] were 19.9 µM, 20.4 µM and 24.7 µM, respectively.

Turning to `C=CCc1ccc(O)c(-c2ccc(OCc3ccc(Cl)cc3Cl)c(CC=C)c2)c1`, the inhibition entry in the test with I10 [2] is “Active”. Also, the outcome with I10 [3], with I10 [4], with I10 [5] and in the test on I10 [9] was Active. The IC50 with MCF7 worked out at 14.7 µM; in the test on CNE2Z it was 11.3 µM; with I10 [1] it was 10.4 µM. The Activity entry is “Dose-dependent effect” with I10 [6], “Dose-dependent effect” in the test with I10 [7], “Tde” in the test on I10 [8] and 100% with I10 [10]. Besides, the inhibition result with I10 [11] is “Dose-dependent effect”.

In the case of `C=CCc1ccc(OCc2ccc(Cl)c(Cl)c2)c(-c2ccc(OCc3ccc(Cl)c(Cl)c3)c(CC=C)c2)c1`, the IC50 in the test on MCF7, in the test with CNE2Z and with I10 [1] was more than 50 µM each time.

`C=CCc1ccc(OCc2ccc(Cl)c(Cl)c2)c(-c2ccc(O)c(CC=C)c2)c1`: the IC50 in the test on MCF7 was 17.5 µM; with CNE2Z it was 14.2 µM; with I10 [1], 12.2 µM.

In the case of `C=CCc1ccc(O)c(-c2ccc(OCc3ccc(Cl)c(Cl)c3)c(CC=C)c2)c1`, the half-maximal inhibitory concentration (IC50) worked out at 15.3 µM in the test with MCF7, 17.8 µM in the test with CNE2Z and 12.3 µM in the test on I10 [1].

Take `C=CCc1ccc(OC)c(-c2ccc(OC)c(CC=C)c2)c1`: the 50% inhibitory concentration (IC50) in the test with MCF7, in the test with CNE2Z and with I10 [1] was more than 50 µM each time.

On to `C=CCc1ccc(OCC)c(-c2ccc(OCC)c(CC=C)c2)c1`, for which the IC50 in the test with MCF7, with CNE2Z and in the test on I10 [1] was more than 50 µM throughout.

Turning to `C=CCc1ccc(O)c(-c2ccc(OCc3ccccc3)c(CC=C)c2)c1`, the results for the concentration for half-maximal inhibition (IC50) in the test with MCF7, in the test on CNE2Z and in the test on I10 [1] were 23.2 µM, 30.3 µM and 29.8 µM, respectively.

Take `C=CCc1ccc(OCc2c(Cl)cccc2Cl)c(-c2ccc(O)c(CC=C)c2)c1`: the values for the 50% inhibitory concentration (IC50) in the test with MCF7, in the test with CNE2Z and with I10 [1] were 19.4 µM, 19.9 µM and 17.2 µM, respectively.

Turning to `C=CCc1ccc(OCc2ccc(Cl)cc2Cl)c(-c2ccc(O)c(CC=C)c2)c1`, the IC50 with MCF7 came to 27.4 µM; in the test with CNE2Z, 24.2 µM; in the test on I10 [1] it was 21.1 µM.

With `C=CCc1ccc(OCc2ccc(Cl)cc2Cl)c(-c2ccc(OCc3ccc(Cl)cc3Cl)c(CC=C)c2)c1`, the half-maximal inhibitory concentration (IC50) with MCF7, in the test with CNE2Z and with I10 [1] was more than 50 µM in each case.

For `C=CCc1ccc(O)c(-c2ccc(OC)c(CC=C)c2)c1` [METHYLHONOKIOL], the IC50 in the test with MCF7 was 24.7 µM; in the test on CNE2Z it was 25.5 µM; with I10 [1] it was 26.5 µM.

For `C=CCc1ccc(OCc2ccccc2)c(-c2ccc(O)c(CC=C)c2)c1`, the 50% inhibitory concentration (IC50) with MCF7 was determined as 22.3 µM; with CNE2Z it was 24 µM; in the test on I10 [1] it was 21.8 µM.

As to `C=CCc1ccc(O)c(-c2ccc(O)c(CC=C)c2)c1` [HONOKIOL], the IC50 with MCF7 turned out to be 41.8 µM; with CNE2Z it was 31.3 µM; with I10 [1], 31.1 µM.

Consider `C=CCc1ccc(OC)c(-c2ccc(O)c(CC=C)c2)c1`, for which the 50% inhibitory concentration (IC50) with MCF7 stood at 37.5 µM; in the test with CNE2Z it was 30.3 µM; in the test with I10 [1] it was 38 µM.

As to `C=CCc1ccc(OCc2c(Cl)cccc2Cl)c(-c2ccc(OCc3c(Cl)cccc3Cl)c(CC=C)c2)c1`, the half-maximal inhibitory concentration (IC50) with MCF7, in the test on CNE2Z and with I10 [1] was more than 50 µM throughout.

As for `C=CCc1ccc(O)c(-c2ccc(OCC)c(CC=C)c2)c1`, the IC50 in the test on MCF7 came to 26.3 µM; with CNE2Z it was 24.1 µM; in the test with I10 [1], 21.4 µM.

`C=CCc1ccc(O)c(-c2ccc(OCc3c(Cl)cccc3Cl)c(CC=C)c2)c1`: the figures for the 50% inhibitory concentration (IC50) with MCF7, in the test with CNE2Z and in the test with I10 [1] were 11.5 µM, 16.4 µM and 16.6 µM, respectively.
